Measurements: patent US20070004743A1, “Intranasal administration of mc4-r agonists” (priority 2002, published 2007)

Key:
ob/ob mice [1] = experiment: Intranasal (IN) efficacy, food intake in fasted ob/ob mice; format: in vivo
Experimental: Subjects: ob/ob mice; approximately 10 weeks old males; body weight 50-60 grams.
The mice were divided into the following groups: • 1) Mice received only vehicle. The vehicle was one of the following: water, 10 mM phosphate buffer, 5% captisol in 10 mM phosphate buffer (see Table 1 for details). • 2) Mice received a compound of an embodiment of the present invention at a dosage of 1 mg/kg. • 3) Mice received a compound of an embodiment of the present invention at a dosage of 3 mg/kg. • 4) Mice received a compound of an embodiment of the present invention at a dosage of 6 mg/kg. n=6-8 animals per group
Note: For compound 1 and compound 2, the 1 mg/kg group was not included.
Animals were fasted overnight (˜16 hours), and an MC4-R agonist compound as described in Tables 1-3 was administered at 8:30 am next day. The administration volume was 20-25 μl/50 grams of body weight. […]
IN Efficacy Procedure: Mice were fasted overnight. […] Food weight was measured at 1, 2, 3, 4, 6, and 8 hours following the dosing. […]
(§1) IN Efficacy Procedure: Mice were fasted overnight. […] Food weight was measured at 1, 2, 3, 4, 6, and 8 hours following the dosing.
as §1
IN Efficacy Procedure: Mice were fasted overnight. […] Food weight was measured at 1, 2, 3, 4, and 6 hours following the dosing.

ob/ob mice [2] = experiment: Oral (PO) efficacy, food intake in fasted ob/ob mice; format: in vivo; conditions: 30 mg/kg given orally, FIG. 1B
Experimental: Subjects: ob/ob mice, ˜10 weeks old males. Body weight ˜50 grams.
PO Efficacy Groups: • 1) Vehicle=water • 2) Compound 1=200 μl of 2.5 mg/ml (10 mg/kg) • 3) Compound 1=200 μl of 7.5 mg/ml (30 mg/kg) n=8/group fasted
PO Efficacy Procedure: Mice were fasted overnight. At about 9:00 am the next morning, they were dosed with 200 μl of vehicle or compound solution by oral gavage. Mice were fed with pre-weighed food immediately after dosing, and had access to water the entire time. Food weight was measured at 1, 2, 3, 4, 6, and 24 hours following the dosing.

[3] = humans, cited from earlier work; for body fat: intranasal administration
[4] = acute intranasal, humans; ACTH4-10 1 mg, desacetyl-αMSH equimolar 1.68 mg; cited from earlier work
[5] = after intranasal administration

In the case of `COc1ccc(CCNC(=O)c2ccc(N/C(=N/[C@H]3C[C@H]4C[C@@H]([C@@H]3C)C4(C)C)N3CCN[C@@H](C)C3)cc2)c(F)c1` [Compound 1], the “reduction in cumulative food intake” value (ob/ob mice [1]; 3 mg/kg administered intranasally, FIG. 1A) is reported as 59%, the “increase in biological effect, intranasal versus oral, dose-normalised” value (ob/ob mice [1]; ((59%/39%)÷(3/30)), 3 mg/kg intranasal vs 30 mg/kg oral) is reported as “approximately 15.1 times” and the “decrease in cumulative food intake” value (ob/ob mice [2]) is reported as 39%.

For desacetyl-αMSH, the body fat [3] is given as “nonsignificant” and the “processing negativity (PN) of the ERP over frontal and central cortical areas” value [4] is given as “ineffective”.

In the case of “melanocyte stimulating hormone/adrenocorticotropin4-10 (MEHFRWG; Corticotropin; UniProt P01189 141-147, looked up, fragment) [MSH/ACTH4-10]”, the insulin levels [3, 5] is listed as “decreased”, the plasma leptin levels [3, 5] is listed as “decreased” and the body fat [3] is listed as “reduced body fat”. The “processing negativity (PN) of the ERP over frontal and central cortical areas” value [4] was “reduced”.
